Each structure is given as a SMILES string. A value given as a limit tells only on which side of the number the result lay.

The target of the first assay is T1, BTK (Homo sapiens, UniProt Q06187).
T1 construct: purchased Nanosyn, Santa Clara, Calif; host or cells: 293HEK
T1 sequence (Q06187 whole entry): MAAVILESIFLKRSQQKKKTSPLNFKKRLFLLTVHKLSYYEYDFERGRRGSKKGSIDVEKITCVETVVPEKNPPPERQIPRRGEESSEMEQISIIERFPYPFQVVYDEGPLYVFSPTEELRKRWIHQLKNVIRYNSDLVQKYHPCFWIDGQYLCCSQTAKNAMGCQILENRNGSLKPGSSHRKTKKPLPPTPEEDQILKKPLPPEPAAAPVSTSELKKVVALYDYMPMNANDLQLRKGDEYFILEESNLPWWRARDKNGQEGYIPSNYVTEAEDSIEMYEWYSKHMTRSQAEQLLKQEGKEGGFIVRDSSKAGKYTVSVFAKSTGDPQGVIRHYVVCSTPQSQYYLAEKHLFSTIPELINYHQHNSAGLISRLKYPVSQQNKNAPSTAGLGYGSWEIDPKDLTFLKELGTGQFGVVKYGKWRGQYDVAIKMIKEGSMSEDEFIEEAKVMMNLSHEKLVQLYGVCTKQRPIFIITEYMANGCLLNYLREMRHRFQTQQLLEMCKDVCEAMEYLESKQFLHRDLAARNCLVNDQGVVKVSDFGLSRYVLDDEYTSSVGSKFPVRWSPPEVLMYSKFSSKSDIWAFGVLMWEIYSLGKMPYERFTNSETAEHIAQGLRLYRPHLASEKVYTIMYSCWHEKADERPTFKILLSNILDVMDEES
The experiment in a line: BTK kinase electrophoretic mobility shift assay (MSA). Format: biochemical.
Conditions: not given
The procedure:
Kinase activity, unless otherwise indicated, was measured in vitro using an electrophoretic mobility shift assay (MSA). The phosphorylation of a peptide substrate by BTK and other kinases was measured. The kinase reactions were assembled in a total volume of 25 μL per well in 384 well plates. The following was added to each well: compound buffer (or control); enzyme buffer; and substrate buffer, as further described below.
The terminated reactions were analyzed using a 12 channel LABCHIP® 3000 microfluidic detection instrument (available from Caliper Life Sciences, Waltham, Mass.). […] Change in the relative fluorescence intensity of the substrate and product peaks was the parameter measured, reflecting enzyme activity. In the presence of an inhibitor, the ratio between product and substrate was altered. The signal of the product decreased, while the signal of the substrate increased. Capillary electrophoregrams (RDA acquisition files) were analyzed using HTS Well Analyzer software (available from Caliper Life Sciences, Waltham, Mass.).
Activity in each sample was determined as the product to sum ratio (PSR): P/(S+P), where P was the peak height of the product peptide and S was the peak height of the substrate peptide. For each compound, enzyme activity was measured at various concentrations (12 concentrations of compound spaced by 3× dilution intervals). Negative control samples (00 inhibition in the absence of inhibitor) and positive control samples (10000 inhibition, in the presence of 20 mM EDTA) were assembled in replicates of four and were used to calculate 00 inhibition values for each inhibitor at each concentration. Percent inhibition (Pinh) was determined using following equation: Pinh=(PSR0%−PSRinh)/(PSR0%−PSR100%)*100, where PSRinh was the product sum ratio in the presence of inhibitor, PSR0% was the average product sum ratio in the absence of inhibitor and PSR100% was the average product sum ratio in 100%−inhibition control samples.
The IC50 values of inhibitors were determined by 4 parameter sigmoidal dose response model fitting of the inhibition curves (Pinh versus inhibitor concentration) using XLfit® 4 software (available from IDBS, Boston, Mass.).
One may read the IC50 as the point on the concentration scale where inhibition reaches its midpoint. As for `NC(=O)c1c2c(nn1-c1ccc(Oc3ccccc3)cc1)C(N1CCN(C(=O)CF)CC1)CCN2` (stereo not shown) [Example 49, 7-[4-(fluoroacetyl)piperazin-1-yl]-2-(4-phenoxyphenyl)-4,5,6,7-tetrahydro-2H-pyrazolo[4,3-b]pyridine-3-carboxamide], the IC50 turned out to be 398 nM.

The same assay, now with this note: 50 μM ATP, 0.5 nM BTK enzyme (Nanosyn-293HEK, WT), 3 hours at 25° C.; all examples except 50, 51, 62 and 63; read-out: BTK IC50.
For `C=CC(=O)N1CCN(C2CCNc3c2nn(-c2ccc(Oc4ccc(F)cc4F)cc2)c3C(N)=O)CC1` (stereo not shown) [Example 36, 2-[4-(2,4-difluorophenoxy)phenyl]-7-[4-(prop-2-enoyl)piperazin-1-yl]-4,5,6,7-tetrahydro-2H-pyrazolo[4,3-b]pyridine-3-carboxamide], the IC50 was determined as 14.2 nM.

As for `C=CC(=O)N1CCC(C2CCNc3c2nn(-c2ccc(Oc4ccccc4)cc2F)c3C(N)=O)CC1` (stereo not shown) [Example 37, 2-(2-fluoro-4-phenoxyphenyl)-7-[1-(prop-2-enoyl)piperidin-4-yl]-4,5,6,7-tetrahydro-2H-pyrazolo[4,3-b]pyridine-3-carboxamide], the 50% inhibitory concentration (IC50) was 2.48 nM.

For `C=CC(=O)N1CCN(C2CCNc3c2nn(-c2ccc(Oc4ccccc4F)cc2)c3C(N)=O)CC1` (stereo not shown) [Example 38, 2-[4-(2-fluorophenoxy)phenyl]-7-[4-(prop-2-enoyl)piperazin-1-yl]-4,5,6,7-tetrahydro-2H-pyrazolo[4,3-b]pyridine-3-carboxamide], the IC50 amounted to 3.58 nM.

In the case of `C=CC(=O)N1CC2CC(C1)N2C1CCNc2c1nn(-c1ccc(Oc3ccccc3)cc1)c2C(N)=O` (stereo not shown) [Example 41, 2-(4-phenoxyphenyl)-7-[3-(prop-2-enoyl)-3,6-diazabicyclo[3.1.1]heptan-6-yl]-4,5,6,7-tetrahydro-2H-pyrazolo[4,3-b]pyridine-3-carboxamide], the IC50 is 15.8 nM.

In the case of `C=CC(=O)N1CCN(C2CCNc3c2nn(-c2ccc(Oc4ccccc4)cc2)c3C(N)=O)C[C@H]1C` (stereo partly drawn) [Example 42, 7-[(3R)-3-methyl-4-(prop-2-enoyl)piperazin-1-yl]-2-(4-phenoxyphenyl)-4,5,6,7-tetrahydro-2H-pyrazolo[4,3-b]pyridine-3-carboxamide], the IC50 amounted to 11.8 nM.

As for `CN(C)C/C=C/C(=O)N1CCN([C@@H]2CCNc3c2nn(-c2ccc(Oc4ccccc4)cc2)c3C(N)=O)CC1` [Example 46, (7R)-7-{4-[(2E)-4-(dimethylamino)but-2-enoyl]piperazin-1-yl}-2-(4-phenoxyphenyl)-4,5,6,7-tetrahydro-2H-pyrazolo[4,3-b]pyridine-3-carboxamide], the IC50 stood at 76.7 nM.

As to `C/C=C/C(=O)N1CCN([C@@H]2CCNc3c2nn(-c2ccc(Oc4ccccc4)cc2)c3C(N)=O)CC1` [Example 47, (7R)-7-{4-[(2E)-but-2-enoyl]piperazin-1-yl}-2-(4-phenoxyphenyl)-4,5,6,7-tetrahydro-2H-pyrazolo[4,3-b]pyridine-3-carboxamide], the IC50 came to 819 nM.

`NC(=O)/C=C/C(=O)N1CCN([C@@H]2CCNc3c2nn(-c2ccc(Oc4ccccc4)cc2)c3C(N)=O)CC1` [Example 48, (7R)-7-{4-[(2E)-4-amino-4-oxobut-2-enoyl]piperazin-1-yl}-2-(4-phenoxyphenyl)-4,5,6,7-tetrahydro-2H-pyrazolo[4,3-b]pyridine-3-carboxamide]: the half-inhibitory concentration (IC50) was 51.1 nM.

Consider `C=CC(=O)N1CCN(C2CCNc3c2nn(-c2ccc(Oc4ccccc4)cc2Cl)c3C(N)=O)CC1` (stereo not shown) [Example 52, 2-(2-chloro-4-phenoxyphenyl)-7-[4-(prop-2-enoyl)piperazin-1-yl]-4,5,6,7-tetrahydro-2H-pyrazolo[4,3-b]pyridine-3-carboxamide], for which the IC50 amounted to 33.3 nM.

Consider `C=CC(=O)N1CCN(C2CCNc3c2nn(-c2ccc(Oc4cc(F)cc(F)c4)cc2)c3C(N)=O)CC1` (stereo not shown) [Example 55, 2-[4-(3,5-difluorophenoxy)phenyl]-7-[4-(prop-2-enoyl)piperazin-1-yl]-4,5,6,7-tetrahydro-2H-pyrazolo[4,3-b]pyridine-3-carboxamide], for which the IC50 worked out at 7.63 nM.

On to `C=CC(=O)N1CCN(C2CCNc3c2nn(-c2ccc(Oc4ccc(F)cc4)cc2)c3C(N)=O)CC1` (stereo not shown) [Example 56, 2-[4-(4-fluorophenoxy)phenyl]-7-[4-(prop-2-enoyl)piperazin-1-yl]-4,5,6,7-tetrahydro-2H-pyrazolo[4,3-b]pyridine-3-carboxamide], for which the IC50 was determined as 14.8 nM.

On to `C=CC(=O)N1CCN([C@H]2CCNc3c2nn(-c2ccc(Oc4ccccc4C(F)(F)F)cc2)c3C(N)=O)CC1` [Example 61, (7S)-7-[4-(prop-2-enoyl)piperazin-1-yl]-2-{4-[2-(trifluoromethyl)phenoxy]phenyl}-4,5,6,7-tetrahydro-2H-pyrazolo[4,3-b]pyridine-3-carboxamide], for which the IC50 was 27.2 nM.

With `C=CC(=O)N1CCN([C@H]2CCNc3c2nn(-c2ccc(Oc4ccccc4C)cc2)c3C(N)=O)CC1` [Example 94, (7S)-2-[4-(2-methylphenoxy)phenyl]-7-[4-(prop-2-enoyl)piperazin-1-yl]-4,5,6,7-tetrahydro-2H-pyrazolo[4,3-b]pyridine-3-carboxamide], the IC50 worked out at 23.5 nM.

Turning to `C=CC(=O)N1CCN([C@H]2CCNc3c2nn(-c2ccc(Oc4cccc(C)c4)cc2)c3C(N)=O)CC1` [Example 95, (7S)-2-[4-(3-methylphenoxy)phenyl]-7-[4-(prop-2-enoyl)piperazin-1-yl]-4,5,6,7-tetrahydro-2H-pyrazolo[4,3-b]pyridine-3-carboxamide], the IC50 amounted to 14.1 nM.

For the compound `C=CC(=O)N1CCN([C@H]2CCNc3c2nn(-c2ccc(Oc4ccc(C)cc4)cc2)c3C(N)=O)CC1` [Example 96, (7S)-2-[4-(4-methylphenoxy)phenyl]-7-[4-(prop-2-enoyl)piperazin-1-yl]-4,5,6,7-tetrahydro-2H-pyrazolo[4,3-b]pyridine-3-carboxamide], the IC50 amounted to 59.2 nM.

As to `C=CC(=O)N1CCN([C@H]2CCNc3c2nn(-c2ccc(Oc4ccccc4OC)cc2)c3C(N)=O)CC1` [Example 97, (7S)-2-[4-(2-methoxyphenoxy)phenyl]-7-[4-(prop-2-enoyl)piperazin-1-yl]-4,5,6,7-tetrahydro-2H-pyrazolo[4,3-b]pyridine-3-carboxamide], the IC50 worked out at 120 nM.

As to `C=CC(=O)N1CCN([C@H]2CCNc3c2nn(-c2ccc(Oc4cccc(OC)c4)cc2)c3C(N)=O)CC1` [Example 98, (7S)-2-[4-(3-methoxyphenoxy)phenyl]-7-[4-(prop-2-enoyl)piperazin-1-yl]-4,5,6,7-tetrahydro-2H-pyrazolo[4,3-b]pyridine-3-carboxamide], the IC50 stood at 14.4 nM.

Turning to `C=CC(=O)N1CCN([C@H]2CCNc3c2nn(-c2ccc(Oc4ccc(OC)cc4)cc2)c3C(N)=O)CC1` [Example 99, (7S)-2-[4-(4-methoxyphenoxy)phenyl]-7-[4-(prop-2-enoyl)piperazin-1-yl]-4,5,6,7-tetrahydro-2H-pyrazolo[4,3-b]pyridine-3-carboxamide], the IC50 stood at 136 nM.

Take `C=CC(=O)N1CCN([C@H]2CCNc3c2nn(-c2ccc(Oc4ccccc4OC(F)(F)F)cc2)c3C(N)=O)CC1` [Example 100, (7S)-7-[4-(prop-2-enoyl)piperazin-1-yl]-2-{4-[2-(trifluoromethoxy)phenoxy]phenyl}-4,5,6,7-tetrahydro-2H-pyrazolo[4,3-b]pyridine-3-carboxamide]: the IC50 was 46.3 nM.

Turning to `C=CC(=O)N1CCN([C@H]2CCNc3c2nn(-c2ccc(Oc4cccc(OC(F)(F)F)c4)cc2)c3C(N)=O)CC1` [Example 101, (7S)-7-[4-(prop-2-enoyl)piperazin-1-yl]-2-{4-[3-(trifluoromethoxy)phenoxy]phenyl}-4,5,6,7-tetrahydro-2H-pyrazolo[4,3-b]pyridine-3-carboxamide], the IC50 was 64.1 nM.

Turning to `C=CC(=O)N1CCN([C@H]2CCNc3c2nn(-c2ccc(Oc4ccc(OC(F)(F)F)cc4)cc2)c3C(N)=O)CC1` [Example 102, (7S)-7-[4-(prop-2-enoyl)piperazin-1-yl]-2-{4-[4-(trifluoromethoxy)phenoxy]phenyl}-4,5,6,7-tetrahydro-2H-pyrazolo[4,3-b]pyridine-3-carboxamide], the IC50 was more than 1000 nM.
